Among the data in PubChem BioAssay AID248 (DTP/NCI, 2004) are T/C values, retold here.

“And” between values parts separate entries of the source, which are not always exact repeats. Identical values can stand only once. Toxic doses and inconclusive results are not listed.

This test concerns L1210 leukemia ip in BDF1 mice, survival T/C. As to the kind of experiment: NCI In Vivo Anticancer Drug Screen. Data for tumor model L1210 Leukemia (intraperitoneal) in B6D2F1 (BDF1) mice. The following applies: higher = longer survival. The method in brief:
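In this screen, tumor-bearing mice given compound are compared to those given vehicle, and their survival values are reported as a treated-to-control quotient.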

Turning to `CCN(CC)CCNc1ccc(CO)c2sc3ccccc3c(=O)c12`, the T/C runs as follows: (endpoint: mean survival time, dose: 8.0 mg/kg/injection, schedule: Q01DX009 (ip), vehicle: clinical formulation) 108 % of control; (endpoint: mean survival time, dose: 8.0 mg/kg/injection, schedule: Q01DX009 (ip), vehicle: water) 106 % of control; (endpoint: mean survival time, dose: 16.0 mg/kg/injection, schedule: Q01DX009 (ip), vehicle: clinical formulation) 112 % of control; (endpoint: mean survival time, dose: 16.0 mg/kg/injection, schedule: Q01DX009 (ip), vehicle: water) 92 % of control; (endpoint: mean survival time, dose: 18.75 mg/kg/injection, schedule: Q01DX009 (ip), vehicle: saline) 118 % of control; (endpoint: mean survival time, dose: 22.0 mg/kg/injection, schedule: Q01DX009 (ip), vehicle: saline) 115 % of control. Also, the T/C is 121 % of control (endpoint: mean survival time, dose: 32.0 mg/kg/injection, schedule: Q01DX009 (ip), vehicle: clinical formulation); 117 % of control (endpoint: mean survival time, dose: 32.0 mg/kg/injection, schedule: Q01DX009 (ip), vehicle: water); 123 % of control (endpoint: mean survival time, dose: 35.0 mg/kg/injection, schedule: Q01DX009 (ip), vehicle: saline); 90 % of control (endpoint: mean survival time, dose: 50.0 mg/kg/injection, schedule: Q04DX003 (ip), vehicle: saline); 164 % of control (endpoint: mean survival time, dose: 64.0 mg/kg/injection, schedule: Q01DX009 (ip), vehicle: clinical formulation); 157 % of control (endpoint: mean survival time, dose: 64.0 mg/kg/injection, schedule: Q01DX009 (ip), vehicle: water). Besides, the T/C reads like this: (endpoint: mean survival time, dose: 81.0 mg/kg/injection, schedule: Q01DX009 (ip), vehicle: Klucel (hydroxypropylcellulose) (HPC)) 120 % of control; (endpoint: mean survival time, dose: 100.0 mg/kg/injection, schedule: Q01DX001 (ip), vehicle: saline) 102 % of control; (endpoint: mean survival time, dose: 100.0 mg/kg/injection, schedule: Q04DX003 (ip), vehicle: saline) 106 % of control; (endpoint: mean survival time, dose: 112.0 mg/kg/injection, schedule: Q01DX009 (ip), vehicle: saline) 98 % of control and 105 % of control; (endpoint: mean survival time, dose: 122.0 mg/kg/injection, schedule: Q01DX009 (ip), vehicle: Klucel (hydroxypropylcellulose) (HPC)) 112 % of control; (endpoint: mean survival time, dose: 128.0 mg/kg/injection, schedule: Q01DX009 (ip), vehicle: clinical formulation) 91 % of control. Further, the T/C reads like this: (endpoint: mean survival time, dose: 128.0 mg/kg/injection, schedule: Q01DX009 (ip), vehicle: water) 110 % of control; (endpoint: mean survival time, dose: 150.0 mg/kg/injection, schedule: Q01DX009 (ip), vehicle: saline) 93 % of control; (endpoint: mean survival time, dose: 200.0 mg/kg/injection, schedule: Q01DX001 (ip), vehicle: saline) 110 % of control; (endpoint: mean survival time, dose: 200.0 mg/kg/injection, schedule: Q01DX009 (ip), vehicle: Klucel (hydroxypropylcellulose) (HPC)) 120 % of control; (endpoint: mean survival time, dose: 200.0 mg/kg/injection, schedule: Q04DX003 (ip), vehicle: saline) 173 % of control; (endpoint: mean survival time, dose: 264.0 mg/kg/injection, schedule: Q01DX001 (ip), vehicle: carboxymethylcellulose (CMC)) 112 % of control. In addition, the T/C by setting is: (endpoint: mean survival time, dose: 264.0 mg/kg/injection, schedule: Q01DX009 (ip), vehicle: carboxymethylcellulose (CMC)) 124 % of control; (endpoint: mean survival time, dose: 300.0 mg/kg/injection, schedule: Q04DX003 (ip), vehicle: saline) 184 % of control; (endpoint: mean survival time, dose: 400.0 mg/kg/injection, schedule: Q01DX001 (ip), vehicle: carboxymethylcellulose (CMC)) 157 % of control; (endpoint: median survival time, dose: 4.0 mg/kg/injection, schedule: Q01DX009 (ip), vehicle: saline) 90 % of control; (endpoint: median survival time, dose: 4.0 mg/kg/injection, schedule: Q03HX016 (ip), vehicle: saline) 100 % of control; (endpoint: median survival time, dose: 4.0 mg/kg/injection, schedule: Q03HX024 (ip), vehicle: saline) 100 % of control. Also, the T/C by setting is: (endpoint: median survival time, dose: 8.0 mg/kg/injection, schedule: Q01DX009 (ip), vehicle: saline) 100 % of control; (endpoint: median survival time, dose: 8.0 mg/kg/injection, schedule: Q03HX008 (ip), vehicle: saline) 100 % of control; (endpoint: median survival time, dose: 8.0 mg/kg/injection, schedule: Q03HX016 (ip), vehicle: saline) 100 % of control; (endpoint: median survival time, dose: 8.0 mg/kg/injection, schedule: Q03HX024 (ip), vehicle: saline) 105 % of control; (endpoint: median survival time, dose: 16.0 mg/kg/injection, schedule: Q01DX009 (ip), vehicle: saline) 110 % of control; (endpoint: median survival time, dose: 16.0 mg/kg/injection, schedule: Q01DX009 (sc), vehicle: saline) 100 % of control. For the same compound, the T/C (endpoint: median survival time, dose: 16.0 mg/kg/injection, schedule: Q03HX008 (ip), vehicle: saline) was 110 % of control; the T/C (endpoint: median survival time, dose: 16.0 mg/kg/injection, schedule: Q03HX016 (ip), vehicle: saline) was 100 % of control; the T/C (endpoint: median survival time, dose: 32.0 mg/kg/injection, schedule: Q01DX001 (ip), vehicle: saline) was 100 % of control; the T/C (endpoint: median survival time, dose: 32.0 mg/kg/injection, schedule: Q01DX009 (oral), vehicle: saline) was 100 % of control and 120 % of control; the T/C (endpoint: median survival time, dose: 32.0 mg/kg/injection, schedule: Q01DX009 (sc), vehicle: saline) was 115 % of control; the T/C (endpoint: median survival time, dose: 32.0 mg/kg/injection, schedule: Q04DX003 (ip), vehicle: saline) is 100 % of control. For the same compound, the T/C reads like this: (endpoint: median survival time, dose: 32.0 mg/kg/injection, schedule: Q08DX002 (ip), vehicle: saline) 100 % of control; (endpoint: median survival time, dose: 64.0 mg/kg/injection, schedule: Q01DX001 (ip), vehicle: saline) 100 % of control; (endpoint: median survival time, dose: 64.0 mg/kg/injection, schedule: Q01DX001 (sc), vehicle: saline) 100 % of control; (endpoint: median survival time, dose: 64.0 mg/kg/injection, schedule: Q01DX009 (oral), vehicle: saline) 115 % of control; (endpoint: median survival time, dose: 64.0 mg/kg/injection, schedule: Q04DX003 (ip), vehicle: saline) 110 % of control; (endpoint: median survival time, dose: 64.0 mg/kg/injection, schedule: Q08DX002 (ip), vehicle: saline) 100 % of control. Moreover, the T/C was 110 % of control (endpoint: median survival time, dose: 128.0 mg/kg/injection, schedule: Q01DX001 (ip), vehicle: saline); 105 % of control (endpoint: median survival time, dose: 128.0 mg/kg/injection, schedule: Q01DX001 (sc), vehicle: saline); 120 % of control (endpoint: median survival time, dose: 128.0 mg/kg/injection, schedule: Q01DX009 (oral), vehicle: saline); 95 % of control (endpoint: median survival time, dose: 128.0 mg/kg/injection, schedule: Q01DX009 (sc), vehicle: saline); 110 % of control and 120 % of control (endpoint: median survival time, dose: 256.0 mg/kg/injection, schedule: Q01DX001 (oral), vehicle: saline); 100 % of control (endpoint: median survival time, dose: 256.0 mg/kg/injection, schedule: Q01DX009 (oral), vehicle: saline). Also, the T/C (endpoint: median survival time, dose: 512.0 mg/kg/injection, schedule: Q01DX001 (oral), vehicle: saline) was 110 % of control and 120 % of control.
Take `CC(C)c1nc(C=O)c(C=O)n1Cc1ccccc1`: the T/C reads like this: (endpoint: mean survival time, dose: 25.0 mg/kg/injection, schedule: Q01DX009 (ip), vehicle: saline with Tween-80) 100 % of control and 90 % of control; (endpoint: mean survival time, dose: 25.0 mg/kg/injection, schedule: Q04DX002 (ip), vehicle: saline with Tween-80) 101 % of control and 103 % of control; (endpoint: mean survival time, dose: 25.0 mg/kg/injection, schedule: Q04DX003 (ip), vehicle: carboxymethylcellulose (CMC)) 92 % of control; (endpoint: mean survival time, dose: 50.0 mg/kg/injection, schedule: Q01DX001 (ip), vehicle: saline with Tween-80) 89 % of control; (endpoint: mean survival time, dose: 50.0 mg/kg/injection, schedule: Q01DX009 (ip), vehicle: saline with Tween-80) 102 % of control and 103 % of control; (endpoint: mean survival time, dose: 50.0 mg/kg/injection, schedule: Q04DX002 (ip), vehicle: saline with Tween-80) 95 % of control and 101 % of control. Besides, the T/C (endpoint: mean survival time, dose: 50.0 mg/kg/injection, schedule: Q04DX003 (ip), vehicle: carboxymethylcellulose (CMC)) is 95 % of control; the T/C (endpoint: mean survival time, dose: 100.0 mg/kg/injection, schedule: Q01DX001 (ip), vehicle: saline with Tween-80) was 96 % of control; the T/C (endpoint: mean survival time, dose: 100.0 mg/kg/injection, schedule: Q01DX009 (ip), vehicle: saline with Tween-80) was 94 % of control and 105 % of control; the T/C (endpoint: mean survival time, dose: 100.0 mg/kg/injection, schedule: Q04DX002 (ip), vehicle: Klucel (hydroxypropylcellulose) (HPC)) was 105 % of control; the T/C (endpoint: mean survival time, dose: 100.0 mg/kg/injection, schedule: Q04DX002 (ip), vehicle: other) is 98 % of control and 89 % of control; the T/C (endpoint: mean survival time, dose: 100.0 mg/kg/injection, schedule: Q04DX002 (ip), vehicle: saline with Tween-80) is 95 % of control and 86 % of control. Moreover, the T/C was 100 % of control (endpoint: mean survival time, dose: 100.0 mg/kg/injection, schedule: Q04DX003 (ip), vehicle: carboxymethylcellulose (CMC)); 94 % of control (endpoint: mean survival time, dose: 200.0 mg/kg/injection, schedule: Q01DX001 (ip), vehicle: saline with Tween-80); 107 % of control (endpoint: mean survival time, dose: 200.0 mg/kg/injection, schedule: Q04DX002 (ip), vehicle: Klucel (hydroxypropylcellulose) (HPC)); 98 % of control (endpoint: mean survival time, dose: 200.0 mg/kg/injection, schedule: Q04DX002 (ip), vehicle: other).
With `CC1CCC/C(=N/Nc2ccc3ccccc3n2)C1` (configuration not stated), the T/C (endpoint: mean survival time, dose: 75.0 mg/kg/injection, schedule: Q01DX001 (ip), vehicle: saline) was 113 % of control.
